test system: Phytophthora infestans; assay: not given; format: in vivo; conditions: Potato, 14.8.96, 2000 ppm

Molecule | Control Efficacy %
D,L-N-β-methyl benzoyl-3-aminobutyric acid n-octyl ester [Example 3] | 88%
N-β-methyl benzoyl-3 aminobutyric acid-sec. butyl ester [Example 4] | 77%
CC(CC(=O)Nc1ccccc1)NS(=O)(=O)c1ccccc1 (racemic) [Example 2, D,L-N-benzensulfonyl-3-aminobutyranilide] | 74%
CC(CC(=O)OCCCl)NC(=O)c1ccc(Cl)cc1 (racemic) [Example 6, D,L-N-4-chlorobenzoyl-3-aminobutyric acid 2-chloro-ethyl ester] | 88%
CC(CC(=O)NCc1ccccc1)NS(=O)(=O)c1ccccc1 (racemic) [Example 1, D,L-N-benzenesulfonyl-3-amino N-benzyl butyramide] | 72%

same assay, conditions: Potato, 17.7.096, 500 ppm

Molecule | Control Efficacy %
D,L-N-β-methyl benzoyl-3-aminobutyric acid n-octyl ester [Example 3] | 70%
N-β-methyl benzoyl-3 aminobutyric acid-sec. butyl ester [Example 4] | 56%
CC(CC(=O)Nc1ccccc1)NS(=O)(=O)c1ccccc1 (racemic) [Example 2, D,L-N-benzensulfonyl-3-aminobutyranilide] | 45%
CC(CC(=O)OCCCl)NC(=O)c1ccc(Cl)cc1 (racemic) [Example 6, D,L-N-4-chlorobenzoyl-3-aminobutyric acid 2-chloro-ethyl ester] | 75%
CC(CC(=O)NCc1ccccc1)NS(=O)(=O)c1ccccc1 (racemic) [Example 1, D,L-N-benzenesulfonyl-3-amino N-benzyl butyramide] | 57%

same assay, conditions: Potato, 17.7.096, 2000 ppm

Molecule | Control Efficacy %
D,L-N-β-methyl benzoyl-3-aminobutyric acid n-octyl ester [Example 3] | 81%
N-β-methyl benzoyl-3 aminobutyric acid-sec. butyl ester [Example 4] | 75%
CC(CC(=O)Nc1ccccc1)NS(=O)(=O)c1ccccc1 (racemic) [Example 2, D,L-N-benzensulfonyl-3-aminobutyranilide] | 81%
CC(CC(=O)OCCCl)NC(=O)c1ccc(Cl)cc1 (racemic) [Example 6, D,L-N-4-chlorobenzoyl-3-aminobutyric acid 2-chloro-ethyl ester] | 50%
CC(CC(=O)NCc1ccccc1)NS(=O)(=O)c1ccccc1 (racemic) [Example 1, D,L-N-benzenesulfonyl-3-amino N-benzyl butyramide] | 77%

same assay, conditions: Potato, 26.7.96, 500 ppm

Molecule | Control Efficacy %
D,L-N-β-methyl benzoyl-3-aminobutyric acid n-octyl ester [Example 3] | 85%
N-β-methyl benzoyl-3 aminobutyric acid-sec. butyl ester [Example 4] | 23%
CC(CC(=O)Nc1ccccc1)NS(=O)(=O)c1ccccc1 (racemic) [Example 2, D,L-N-benzensulfonyl-3-aminobutyranilide] | 42%
CC(CC(=O)NCc1ccccc1)NS(=O)(=O)c1ccccc1 (racemic) [Example 1, D,L-N-benzenesulfonyl-3-amino N-benzyl butyramide] | 49%

same assay, conditions: Potato, 26.7.96, 2000 ppm

Molecule | Control Efficacy %
D,L-N-β-methyl benzoyl-3-aminobutyric acid n-octyl ester [Example 3] | 92%
N-β-methyl benzoyl-3 aminobutyric acid-sec. butyl ester [Example 4] | 42%
CC(CC(=O)Nc1ccccc1)NS(=O)(=O)c1ccccc1 (racemic) [Example 2, D,L-N-benzensulfonyl-3-aminobutyranilide] | 68%
CC(CC(=O)NCc1ccccc1)NS(=O)(=O)c1ccccc1 (racemic) [Example 1, D,L-N-benzenesulfonyl-3-amino N-benzyl butyramide] | 79%

test system: Phytophthora infestans; assay: not given; format: in vivo; conditions: Tomato, 12.7.96, 500 ppm

Molecule | Control Efficacy %
CC(CC(=O)Nc1ccccc1)NS(=O)(=O)c1ccccc1 (racemic) [Example 2, D,L-N-benzensulfonyl-3-aminobutyranilide] | 85%
CC(CC(=O)OCCCl)NC(=O)c1ccc(Cl)cc1 (racemic) [Example 6, D,L-N-4-chlorobenzoyl-3-aminobutyric acid 2-chloro-ethyl ester] | 76%
CC(CC(=O)NCc1ccccc1)NS(=O)(=O)c1ccccc1 (racemic) [Example 1, D,L-N-benzenesulfonyl-3-amino N-benzyl butyramide] | 82%

same assay, conditions: Tomato, 12.7.96, 2000 ppm

Molecule | Control Efficacy %
D,L-N-β-methyl benzoyl-3-aminobutyric acid n-octyl ester [Example 3] | 70%
N-β-methyl benzoyl-3 aminobutyric acid-sec. butyl ester [Example 4] | 85%
CC(CC(=O)Nc1ccccc1)NS(=O)(=O)c1ccccc1 (racemic) [Example 2, D,L-N-benzensulfonyl-3-aminobutyranilide] | 85%
CC(CC(=O)OCCCl)NC(=O)c1ccc(Cl)cc1 (racemic) [Example 6, D,L-N-4-chlorobenzoyl-3-aminobutyric acid 2-chloro-ethyl ester] | 79%
CC(CC(=O)NCc1ccccc1)NS(=O)(=O)c1ccccc1 (racemic) [Example 1, D,L-N-benzenesulfonyl-3-amino N-benzyl butyramide] | 97%

same assay, conditions: Tomato, 14.8/96, 2000 ppm

Molecule | Control Efficacy %
D,L-N-β-methyl benzoyl-3-aminobutyric acid n-octyl ester [Example 3] | 93%
N-β-methyl benzoyl-3 aminobutyric acid-sec. butyl ester [Example 4] | 90%
CC(CC(=O)Nc1ccccc1)NS(=O)(=O)c1ccccc1 (racemic) [Example 2, D,L-N-benzensulfonyl-3-aminobutyranilide] | 83%
CC(CC(=O)OCCCl)NC(=O)c1ccc(Cl)cc1 (racemic) [Example 6, D,L-N-4-chlorobenzoyl-3-aminobutyric acid 2-chloro-ethyl ester] | 67%
CC(CC(=O)NCc1ccccc1)NS(=O)(=O)c1ccccc1 (racemic) [Example 1, D,L-N-benzenesulfonyl-3-amino N-benzyl butyramide] | 90%

test system: Phytophthora infestans; assay: not given; format: in vivo; conditions: Tomato, 500 ppm, 7 days after inoculation

Molecule | Control efficacy (%) 7d
CCCOC(=O)CC(C)NS(=O)(=O)c1ccc(Cl)cc1 (stereo not drawn) [compound 35, D,L N-4-chlorobenzenesulfonyl-3-aminobutyric acid propyl ester] | 81%
Cc1ccc(C(=O)NC(C)CC(=O)OC2CCCCC2)cc1 (stereo not drawn) [compound 37, D,L N-4-methylbenzoyl-3-aminobutyric acid cyclohexyl ester] | 78%
Cc1ccc(C(=O)NC(C)CC(=O)OCCC(Cl)(Cl)Cl)cc1 (stereo not drawn) [compound 36, D,L N-4-methylbenzoyl-3-aminobutyric acid 2-(trichloromethyl)ethyl ester] | 81%
CCCCC(C)OC(=O)CC(C)NC(=O)c1ccccc1NC (stereo not drawn) [compound 52, D,L N-2-methylaminobenzoyl-3-aminobutyric acid 1-methylpentyl ester] | 75%
CC(CC(=O)OC1CCCCC1)NS(=O)(=O)c1ccccc1 (stereo not drawn) [compound 39, D,L N-benzenesulfonyl-3-aminobutyric acid cyclohexyl ester] | 75%
CC(CC(=O)OC1CCCCC1)NC(=O)c1ccccc1 (stereo not drawn) [compound 38, D,L N-benzoyl-3-aminobutyric acid cyclohexyl ester] | 78%

test system: Erysiphe graminis tritici; assay: Powdery mildew in wheat, additional examples (Table 6); format: in vivo; conditions: 500 ppm, 7 days after inoculation
Description: Wheat plants (cv.Shafir) were raised from seed in the greenhouse, 30 plants per 0.2 liter pot. When the first leaf was fully developed plants were sprayed with the test solutions and placed in a 20° C. growth cabinet. Two days after spraying plants were dusted with conidia of E. graminis tritict so that about 100 spores were settled on 1 cm^2 of leaf area (both surfaces). […] Control efficacy was calculated relative to number of colonies developed on the control-inoculated untreated plants.

Molecule | Control efficacy (%) 7d
CCCOC(=O)CC(C)NS(=O)(=O)c1ccc(Cl)cc1 (stereo not drawn) [compound 35, D,L N-4-chlorobenzenesulfonyl-3-aminobutyric acid propyl ester] | 81%
CCCCCCCOC(=O)CC(C)NC(=O)c1ccc(C(C)(C)C)cc1 (stereo not drawn) [compound 15, D,L N-4-tertbutylbenzoyl-3-aminobutyric acid heptyl ester] | 74%
CC(CC(=O)OC1CCCCC1)NC(=O)c1ccccc1 (stereo not drawn) [compound 38, D,L N-benzoyl-3-aminobutyric acid cyclohexyl ester] | 100%

test system: Plasmopara viticola; assay: Downy mildew in grapes (Table 9); format: in vivo; conditions: 500 ppm, 10 days after inoculation
Description: Two days after spraying plants were inoculated with sporangial suspension of P.viticola ([…]) onto their lower leaf surface and placed in 100% relative humidity for 20 hr. The plants were then placed in a growth cabinets 20° C. for 10 days. Disease development was assessed according to the abaxial leaf surfaces area covered with fungal sporulation.

Molecule | Control efficacy % 10d
CCCCCCCOC(=O)CC(C)NC(=O)c1ccc(C(C)(C)C)cc1 (stereo not drawn) [compound 15, D,L N-4-tertbutylbenzoyl-3-aminobutyric acid heptyl ester] | 97%
CC(CC(=O)OCCC(Cl)(Cl)Cl)NC(=O)c1ccccc1 (stereo not drawn) [compound 29, D,L N-benzoyl-3-aminobutyric acid 2-(trichloromethyl)ethyl ester] | 91%
CC(CC(=O)OCCC(Cl)(Cl)Cl)NS(=O)(=O)c1ccccc1 (stereo not drawn) [compound 19, D,L N-benzenesulfonyl-3-aminobutyric acid 2-(trichloromethyl)ethyl ester] | 94%
CCCC(C)COC(=O)CC(C)NC(=O)c1c(Cl)cccc1Cl (stereo not drawn) [compound 25, D,L N-2,6-dichlorobenzoyl-3-aminobutyric acid 2-methylpentyl ester] | 100%
CCCCC(C)OC(=O)CC(C)NC(=O)c1ccc(Cl)cc1 (stereo not drawn) [compound 18, D,L N-4-cholrobenzoyl-3-aminobutyric acid 1-methylpentyl ester] | 91%
Cc1cc(C)cc(C(=O)NC(C)CC(=O)OCCCl)c1 (stereo not drawn) [compound 27, D,L N-3,5-dimethylbezoyl-3-aminobutyric acid 2-chloroethyl ester] | 97%

test system: Venturia inaequalis; assay: not given; conditions: 0.03 M; cited from earlier work

Molecule | reduction of scab in apple
CC(C)CC(N)C(=O)O (stereo not drawn) [DL leucine] | reduce scab
CCC(N)C(=O)O (racemic) [DL-α-aminobutyric acid] | reduce scab
CC(C)C[C@@H](N)C(=O)O [D-leucine, D-and DL leucine] | reduce scab
C[C@@H](N)C(=O)O [D-alaninie] | reduce scab

test system: cladosporium cucumerinum; assay: not given; conditions: cited from earlier work

Molecule | behaviour as chemotherapeutant against the fungus on cucumber
NC(CO)C(=O)O (racemic) [DL-serine] | behaved as chemothrerpeutants
N[C@H](CO)C(=O)O [D-serine] | behaved as chemothrerpeutants
C[C@@H](O)[C@H](N)C(=O)O (racemic) [DL-threonine] | behaved as chemothrerpeutants

test system: Phytophthora infestans; assay: not given; conditions: applied to leaves of tomato; cited from earlier work

Molecule | protection of tomato leaves
CC(N)CC(=O)O (racemic) [DL-β-aminobutyric acid] | protected those leaves

test system: Pseudoperonospora cubensis; assay: Downy mildew in melon (Table 7); conditions: 500 ppm, 7 days after inoculation
Description: (§1) Cucumber plants (cv,Dlila) and melon plants (cv.Ein Dor) were raised from seeds in 0.2 liter pots in the greenhouse. At 3 weeks after sowing when had 3 true leaves they were inoculated with sporangial suspension (1000 sporangia/ml) of P.cubensis (resistant to metalaxyl) and placed in 100% relative humidity in the dark for 20 hr. They were then place in a 20° C. growth cabinet for 7 days and assessed for disease development. Percentage leaf area covered with disease symptoms was evaluated and control efficacy was calculated relative to control inoculated plants.

Molecule | Control efficacy % 7 days
CCCCCCCOC(=O)CC(C)NC(=O)c1ccc(C(C)(C)C)cc1 (stereo not drawn) [compound 15, D,L N-4-tertbutylbenzoyl-3-aminobutyric acid heptyl ester] | 97%
CC(CC(=O)OCCC(Cl)(Cl)Cl)NC(=O)c1ccccc1 (stereo not drawn) [compound 29, D,L N-benzoyl-3-aminobutyric acid 2-(trichloromethyl)ethyl ester] | 70%
CC(CC(=O)OCCC(Cl)(Cl)Cl)NS(=O)(=O)c1ccccc1 (stereo not drawn) [compound 19, D,L N-benzenesulfonyl-3-aminobutyric acid 2-(trichloromethyl)ethyl ester] | 83%
CCCC(C)COC(=O)CC(C)NC(=O)c1c(Cl)cccc1Cl (stereo not drawn) [compound 25, D,L N-2,6-dichlorobenzoyl-3-aminobutyric acid 2-methylpentyl ester] | 80%
CCCCC(C)OC(=O)CC(C)NC(=O)c1ccc(Cl)cc1 (stereo not drawn) [compound 18, D,L N-4-cholrobenzoyl-3-aminobutyric acid 1-methylpentyl ester] | 87%
Cc1cc(C)cc(C(=O)NC(C)CC(=O)OCCCl)c1 (stereo not drawn) [compound 27, D,L N-3,5-dimethylbezoyl-3-aminobutyric acid 2-chloroethyl ester] | 73%

test system: Erysiphe graminis tritici; assay: Powdery mildew in wheat (Table 5); conditions: Wheat 7.8.96, dose 500 (unit not given)

Molecule | Control Efficacy %
N-β-methyl benzoyl-3 aminobutyric acid-sec. butyl ester [Example 4] | 96%
CCCCCCCCOC(=O)CC(C)NC(=O)c1ccc(Cl)c(Cl)c1 (racemic) [Example 5, D,L-N-3,4-dichlorobenzoyl-3-aminobutyric acid n-octyl ester] | 76%

same assay, conditions: Wheat 7.8.96, dose 2000 (unit not given)

Molecule | Control Efficacy %
N-β-methyl benzoyl-3 aminobutyric acid-sec. butyl ester [Example 4] | 96%
CCCCCCCCOC(=O)CC(C)NC(=O)c1ccc(Cl)c(Cl)c1 (racemic) [Example 5, D,L-N-3,4-dichlorobenzoyl-3-aminobutyric acid n-octyl ester] | 92%

test system: Erysiphe graminis hordei; assay: Powdery mildew in barley (Table 5); conditions: Barley 17.9.96, dose 500 (unit not given)

Molecule | Control Efficacy %
N-β-methyl benzoyl-3 aminobutyric acid-sec. butyl ester [Example 4] | 87%
CC(CC(=O)OCCCl)NC(=O)c1ccc(Cl)cc1 (racemic) [Example 6, D,L-N-4-chlorobenzoyl-3-aminobutyric acid 2-chloro-ethyl ester] | 62%
CC(CC(=O)NCc1ccccc1)NS(=O)(=O)c1ccccc1 (racemic) [Example 1, D,L-N-benzenesulfonyl-3-amino N-benzyl butyramide] | 25%
CCCCCCCCOC(=O)CC(C)NC(=O)c1ccc(Cl)c(Cl)c1 (racemic) [Example 5, D,L-N-3,4-dichlorobenzoyl-3-aminobutyric acid n-octyl ester] | 82%

same assay, conditions: Barley 17.9.96, dose 2000 (unit not given)

Molecule | Control Efficacy %
N-β-methyl benzoyl-3 aminobutyric acid-sec. butyl ester [Example 4] | 95%
CC(CC(=O)OCCCl)NC(=O)c1ccc(Cl)cc1 (racemic) [Example 6, D,L-N-4-chlorobenzoyl-3-aminobutyric acid 2-chloro-ethyl ester] | 75%
CC(CC(=O)NCc1ccccc1)NS(=O)(=O)c1ccccc1 (racemic) [Example 1, D,L-N-benzenesulfonyl-3-amino N-benzyl butyramide] | 75%
CCCCCCCCOC(=O)CC(C)NC(=O)c1ccc(Cl)c(Cl)c1 (racemic) [Example 5, D,L-N-3,4-dichlorobenzoyl-3-aminobutyric acid n-octyl ester] | 85%

test system: Pseudoperonospora cubensis; assay: Downy mildew in cucumber (Table 8); conditions: 500 ppm, 7 days after inoculation
Description: as §1

Molecule | Control efficacy (%) 7d
CCCOC(=O)CC(C)NS(=O)(=O)c1ccc(Cl)cc1 (stereo not drawn) [compound 35, D,L N-4-chlorobenzenesulfonyl-3-aminobutyric acid propyl ester] | 77%
Cc1ccc(C(=O)NC(C)CC(=O)OC2CCCCC2)cc1 (stereo not drawn) [compound 37, D,L N-4-methylbenzoyl-3-aminobutyric acid cyclohexyl ester] | 75%
CCCCCCCOC(=O)CC(C)NS(=O)(=O)c1ccc(Cl)cc1 (stereo not drawn) [compound 40, D,L N-4-chlorobenzenesulfonyl-3-aminobutyric acid heptyl ester] | 82%
Cc1ccc(C(=O)NC(C)CC(=O)OCCC(Cl)(Cl)Cl)cc1 (stereo not drawn) [compound 36, D,L N-4-methylbenzoyl-3-aminobutyric acid 2-(trichloromethyl)ethyl ester] | 82%
CCCCC(C)OC(=O)CC(C)NC(=O)c1ccccc1NC (stereo not drawn) [compound 52, D,L N-2-methylaminobenzoyl-3-aminobutyric acid 1-methylpentyl ester] | 97%
CC(CC(=O)OC1CCCCC1)NS(=O)(=O)c1ccccc1 (stereo not drawn) [compound 39, D,L N-benzenesulfonyl-3-aminobutyric acid cyclohexyl ester] | 70%
CC(CC(=O)OC1CCCCC1)NC(=O)c1ccccc1 (stereo not drawn) [compound 38, D,L N-benzoyl-3-aminobutyric acid cyclohexyl ester] | 80%
